From publication PMC5177629, “Selective Estrogen Receptor Modulators: Cannabinoid Receptor Inverse Agonists with Differential CB1 and CB2 Selectivity” (Frontiers in Pharmacology, 2016)
Where two headings read alike, the source gives them in different places.

Experiments:
[1] = biological target: T1, human cannabinoid type-1 receptors (hCB1) (Homo sapiens, UniProt P21554); test: Antagonism of CP-55,940 inhibition of adenylyl cyclase, intact CHO-hCB1 cells; format: cell-based; conditions: for IMAX of CP-55,940 after pre-incubation with the drug: CHO-hCB1 cells, pre-incubation 30 min: OSP, NAF, BAZ 10 μM, RAL 2 μM, AM-281 1 μM
T1 construct: host or cells: CHO cells (CHO-hCB1), membranes or intact cells
Procedure: Briefly, cells cultured between passages 4 and 15 were seeded into 24-well plates at a concentration of 6.5 million cells per plate and incubated overnight in a humidified incubator maintained at 37°C and 5% CO2. Growth media was removed the next day and replaced with media containing […] [^3H]adenine, 0.9g/L NaCl, and 0.5 mM isobutyl-methyl-xanthine (IBMX) for 2–3 h. Radioactive media was then removed and each well treated with 0.5 ml of varying concentrations of SERM compounds in a Krebs-Ringer-HEPES solution (10 mM HEPES, 110 mM NaCl, 25 mM Glucose, 55 mM Sucrose, 5 mM KCl, 1 mM MgCl2, 1.8 mM CaCl2, pH 7.4) containing 0.5 mM IBMX and 10 μM forskolin. Plates were then floated in a 37°C water bath for 15 min before reactions were terminated by addition of 50 μL of 2.2 N HCl to each well.
Reactions were then terminated by adding 50 μL of 2.2 N HCl to each well. [^3H]cAMP was isolated using alumina column chromatography and radioactivity quantified following addition of 10 mls of scintiverseTM BD cocktail scintillation fluid (Fisher Scientific, Pittsburg, PA, USA) by liquid scintillation spectrophotometry (Tri Carb 2100 TR Liquid Scintillation Analyzer, Packard Instrument Company, Meriden, CT, USA).
Statistical analyses were conducted by utilizing GraphPad Prism v6.0g (GraphPad Software, Inc.; San Diego, CA, USA). IC50 values from competition receptor binding curves were derived by non-linear regression. […] Non-linear regression analysis of concentration-effect curves was also used to determine potency (ED50 or IC50) and efficacy (Emax or Imax) for modulation of GTPγS and adenylyl cyclase activity, respectively. All IC50, EC50, Ki, and Kb values were converted to pEC50, pIC50, pKi, and pKb values in order to permit use of parametric statistical analyses. For all experiments comparing three or more values, an one-way ANOVA was employed, followed by Dunnett’s or Tukey’s post hoc tests. For comparisons of two values, an unpaired t-test was utilized. To determine significant radioligand displacement or modulation of G-protein activity compared to basal levels, a one-sample t-test was employed.
IC50 and Kb values were converted to pIC50 and pKb values (pIC50 = -Log[IC50] or pKb = -Log[Kb], respectively) to allow use of parametric statistics for comparison.

[2] = biological target: T2, human cannabinoid type-2 receptors (hCB2) (Homo sapiens, UniProt P34972); test: Competition receptor binding with [3H]CP-55,940, CHO-hCB2 membranes; conditions: for displacement of [3H]CP-55,940 from hCB2Rs: single 1 μM concentration, 0.2 nM [3H]CP-55,940, CHO-hCB2
T2 construct: expressed in transfected cells; host or cells: CHO cells (CHO-hCB2), membranes or intact cells
Procedure: Membrane homogenates were prepared for competition receptor binding and [^35S]GTPγS binding studies by using pellets previously frozen of CHO-hCB1 or CHO-hCB2 cells as described in ([Franks et al., 2014]). In short, pellets were thawed on ice, combined in a 40 ml glass Dounce homogenizer and homogenized in 20 ml of cold buffer (50 mM HEPES at pH 7.4, 3 mM MgCl2, and 1 mM EGTA) using 10 strokes. Homogenates were then centrifuged at 40,000 × g for 10 min at 4°C. After discarding the supernatant, pellets were homogenized and centrifuged twice more. Final pellets were re-suspended in ice-cold 50 mM HEPES, pH 7.4, aliquoted and stored at -80°C for future use. Protein concentration was determined the same day, prior to freezing, using BCA^TM Protein Assay (Thermo Fisher Scientific, Waltham, MA, USA).
The final volume of each sample was 1 ml, containing 50 mM Tris-HCl buffer (pH 7.4), 0.05% bovine serum albumin, 5 mM MgCl2, increasing concentrations of non-radioactive competing SERM ligands, and either 100 μg of CHO-hCB1 or 50 μg of CHO-hCB2 membrane homogenates. Non-specific binding was defined by radioactivity remaining in the presence of 1 μM of the non-radioactive CB1/CB2 agonist WIN-55,212-2. Each sample condition was performed in triplicate and allowed to reach equilibrium at room temperature for 90 min. Reactions were terminated by rapid vacuum filtration through Whatman GF/B glass fiber filters (Brandel, Inc.), followed by four 4 ml washes of ice-cold filtration buffer (50 mM Tris at pH 7.4 and 0.05% BSA). Filter punches of individual samples were placed in scintillation vials containing 4 mls of ScintiverseTM BD cocktail scintillation fluid (Fisher Scientific, Pittsburg, PA, USA). Final counts were determined using liquid scintillation spectrophotometry (Tri Carb 2100 TR Liquid Scintillation Analyzer, Packard Instrument Company, Meriden, CT, USA) after overnight incubation.
Statistical analyses were conducted by utilizing GraphPad Prism v6.0g (GraphPad Software, Inc.; San Diego, CA, USA). IC50 values from competition receptor binding curves were derived by non-linear regression. Experimental IC50 values were converted to Ki values (a measure of receptor affinity) by using the Cheng–Prusoff equation ([Cheng and Prusoff, 1973]). Non-linear regression analysis of concentration-effect curves was also used to determine potency (ED50 or IC50) and efficacy (Emax or Imax) for modulation of GTPγS and adenylyl cyclase activity, respectively. All IC50, EC50, Ki, and Kb values were converted to pEC50, pIC50, pKi, and pKb values in order to permit use of parametric statistical analyses. For all experiments comparing three or more values, an one-way ANOVA was employed, followed by Dunnett’s or Tukey’s post hoc tests. For comparisons of two values, an unpaired t-test was utilized. To determine significant radioligand displacement or modulation of G-protein activity compared to basal levels, a one-sample t-test was employed.
For initial comparison of potential SERM binding to CBRs, 14 commercially available compounds from 5 structurally distinct classes (Figure 1) were subjected to a radioligand binding screen (Figure 2).

[3] = Ki, [3H]CP-55,940 Binding CHO-hCB2, CHO-hCB2 membranes, Cheng-Prusoff from IC50

T2 sequence (P34972 whole entry): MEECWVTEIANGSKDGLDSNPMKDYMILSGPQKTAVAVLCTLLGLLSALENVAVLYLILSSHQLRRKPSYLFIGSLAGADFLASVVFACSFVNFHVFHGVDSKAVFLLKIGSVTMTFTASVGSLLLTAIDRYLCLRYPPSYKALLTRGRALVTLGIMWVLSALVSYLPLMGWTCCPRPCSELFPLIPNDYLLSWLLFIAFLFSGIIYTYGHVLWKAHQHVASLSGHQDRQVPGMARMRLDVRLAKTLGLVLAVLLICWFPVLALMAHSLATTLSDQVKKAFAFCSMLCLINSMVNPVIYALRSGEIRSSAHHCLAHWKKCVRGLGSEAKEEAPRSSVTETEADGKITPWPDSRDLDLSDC
T1 sequence (P21554 whole entry): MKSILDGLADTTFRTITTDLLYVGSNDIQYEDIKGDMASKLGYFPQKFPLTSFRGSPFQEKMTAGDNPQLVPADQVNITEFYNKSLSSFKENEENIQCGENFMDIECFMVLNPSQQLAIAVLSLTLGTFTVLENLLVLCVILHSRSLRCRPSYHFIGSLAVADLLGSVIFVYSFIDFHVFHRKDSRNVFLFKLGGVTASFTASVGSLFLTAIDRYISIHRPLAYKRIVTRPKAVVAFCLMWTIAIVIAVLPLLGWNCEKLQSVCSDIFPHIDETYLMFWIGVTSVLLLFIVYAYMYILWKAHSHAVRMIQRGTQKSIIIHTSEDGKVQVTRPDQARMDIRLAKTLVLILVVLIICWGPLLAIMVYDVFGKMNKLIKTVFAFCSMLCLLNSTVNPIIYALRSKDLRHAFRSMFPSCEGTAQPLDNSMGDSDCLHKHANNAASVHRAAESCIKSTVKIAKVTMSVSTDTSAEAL

SMILES	IMAX of CP-55,940 after pre-incubation with the drug [1] [%]	Kb ([1]; read-out: Kb (antagonist dissociation constant), CHO-hCB1) [nM]	Ki ([2]; CHO-hCB2 membranes, read-out: affinity for hCB2Rs (Ki)) [nM]	Ki [2, 3] [nM]	Kb [1] [nM]	Ki ([2]; affinity for hCB2Rs (Ki), CHO-hCB2 membranes) [nM]	Ki ([2]; pKi, [3H]CP-55,940 Binding CHO-hCB2, CHO-hCB2 membranes, mean ± SEM) [nM]	displacement of [3H]CP-55,940 from hCB2Rs [2] [%]	Ki ([2]; pKi, [3H]CP-55,940 Binding CHO-hCB2) [nM]
COc1ccc2c(c1)CCC(c1ccccc1)=C2c1ccc(OCCN2CCCC2)cc1 [NAF, nafoxidine]	38.3 ± 1.7	1160	1000 to 4000	1300					
OCCOc1ccc(/C(=C(/CCCl)c2ccccc2)c2ccccc2)cc1 [OSP, ospemifene]	43.8 ± 2.7			3720	173	1000 to 4000			
O=C(c1ccc(OCCN2CCCCC2)cc1)c1c(-c2ccc(O)cc2)sc2cc(O)ccc12 [RAL, raloxifene]				~200			240	80	
Cc1c(-c2ccc(O)cc2)n(Cc2ccc(OCCN3CCCCCC3)cc2)c2ccc(O)cc12 [BAZ, bazedoxifene]								73	254
